Experimental data as given in ChEMBL document CHEMBL4507301 (2021).

Key:
[1] = system: Tyrosine-protein kinase ABL1 (Homo sapiens), P00519 [H396P]; conditions: Compound concentration 1000.0 nM
[2] = biological target: Aurora kinase C (Homo sapiens) (UniProt Q9UQB9); conditions: Compound concentration 1000.0 nM
[3] = biological target: Tyrosine-protein kinase receptor UFO (Homo sapiens) (UniProt P30530); conditions: Compound concentration 1000.0 nM
[4] = biological target: Calcium/calmodulin-dependent protein kinase type 1D (Homo sapiens) (UniProt Q8IU85); conditions: Compound concentration 1000.0 nM
[5] = biological target: Calcium/calmodulin-dependent protein kinase type II subunit alpha (Homo sapiens) (UniProt Q9UQM7); conditions: Compound concentration 1000.0 nM
[6] = biological target: Calcium/calmodulin-dependent protein kinase type II subunit gamma (Homo sapiens) (UniProt Q13555); conditions: Compound concentration 1000.0 nM
[7] = biological target: Cyclin-dependent kinase 19 (Homo sapiens) (UniProt Q9BWU1); conditions: Compound concentration 1000.0 nM
Sequence of Cyclin-dependent kinase 19 (Homo sapiens) (Q9BWU1 whole entry): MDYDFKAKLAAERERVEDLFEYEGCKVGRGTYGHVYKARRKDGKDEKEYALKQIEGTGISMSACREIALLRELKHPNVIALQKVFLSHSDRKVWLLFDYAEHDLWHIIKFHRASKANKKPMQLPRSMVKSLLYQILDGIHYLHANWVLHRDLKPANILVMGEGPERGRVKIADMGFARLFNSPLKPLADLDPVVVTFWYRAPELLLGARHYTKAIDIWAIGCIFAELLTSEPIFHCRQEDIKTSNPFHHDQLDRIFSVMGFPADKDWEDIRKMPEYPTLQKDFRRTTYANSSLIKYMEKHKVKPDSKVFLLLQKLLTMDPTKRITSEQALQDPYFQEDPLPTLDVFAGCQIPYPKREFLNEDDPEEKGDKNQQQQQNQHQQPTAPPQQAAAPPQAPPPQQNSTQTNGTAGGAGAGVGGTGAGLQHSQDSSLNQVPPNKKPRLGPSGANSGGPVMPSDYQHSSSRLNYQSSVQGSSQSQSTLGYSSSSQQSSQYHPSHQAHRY

[8] = biological target: Cyclin-dependent kinase-like 1 (Homo sapiens) (UniProt Q00532); conditions: Compound concentration 1000.0 nM
[9] = biological target: Dual specificity protein kinase CLK2 (Homo sapiens) (UniProt P49760); conditions: Compound concentration 1000.0 nM
[10] = biological target: Epithelial discoidin domain-containing receptor 1 (Homo sapiens) (UniProt Q08345); conditions: Compound concentration 1000.0 nM
[11] = biological target: Mitogen-activated protein kinase kinase kinase 12 (Homo sapiens) (UniProt Q12852); conditions: Compound concentration 1000.0 nM
[12] = biological target: Ephrin type-A receptor 5 (Homo sapiens) (UniProt P54756); conditions: Compound concentration 1000.0 nM
[13] = biological target: Ephrin type-A receptor 7 (Homo sapiens) (UniProt Q15375); conditions: Compound concentration 1000.0 nM
[14] = biological target: Ephrin type-B receptor 3 (Homo sapiens) (UniProt P54753); conditions: Compound concentration 1000.0 nM
[15] = biological target: Mitogen-activated protein kinase 3 (Homo sapiens) (UniProt P27361); conditions: Compound concentration 1000.0 nM
Sequence of Mitogen-activated protein kinase 3 (Homo sapiens) (P27361 whole entry): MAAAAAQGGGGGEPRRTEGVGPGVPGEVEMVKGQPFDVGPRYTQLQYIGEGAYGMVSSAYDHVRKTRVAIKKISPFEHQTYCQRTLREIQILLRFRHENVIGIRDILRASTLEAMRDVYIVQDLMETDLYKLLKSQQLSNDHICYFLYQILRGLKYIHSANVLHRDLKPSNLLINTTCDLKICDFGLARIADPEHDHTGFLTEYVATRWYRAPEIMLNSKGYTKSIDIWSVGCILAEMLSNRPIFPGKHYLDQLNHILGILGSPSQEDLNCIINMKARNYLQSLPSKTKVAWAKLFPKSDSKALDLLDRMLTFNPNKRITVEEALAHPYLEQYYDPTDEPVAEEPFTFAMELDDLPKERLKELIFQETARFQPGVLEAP

[16] = biological target: Homeodomain-interacting protein kinase 3 (Homo sapiens) (UniProt Q9H422); conditions: Compound concentration 1000.0 nM
[17] = biological target: Interleukin-1 receptor-associated kinase 4 (Homo sapiens) (UniProt Q9NWZ3); conditions: Compound concentration 1000.0 nM
[18] = biological target: Tyrosine-protein kinase ITK/TSK (Homo sapiens) (UniProt Q08881); conditions: Compound concentration 1000.0 nM
[19] = biological target: Mitogen-activated protein kinase 8 (Homo sapiens) (UniProt P45983); conditions: Compound concentration 1000.0 nM
[20] = biological target: Mitogen-activated protein kinase 10 (Homo sapiens) (UniProt P53779); conditions: Compound concentration 1000.0 nM
[21] = system: Mast/stem cell growth factor receptor Kit (Homo sapiens), P10721 [A829P]; conditions: Compound concentration 1000.0 nM
Sequence of Mast/stem cell growth factor receptor Kit (Homo sapiens), P10721 [A829P] (P10721 whole entry A829P): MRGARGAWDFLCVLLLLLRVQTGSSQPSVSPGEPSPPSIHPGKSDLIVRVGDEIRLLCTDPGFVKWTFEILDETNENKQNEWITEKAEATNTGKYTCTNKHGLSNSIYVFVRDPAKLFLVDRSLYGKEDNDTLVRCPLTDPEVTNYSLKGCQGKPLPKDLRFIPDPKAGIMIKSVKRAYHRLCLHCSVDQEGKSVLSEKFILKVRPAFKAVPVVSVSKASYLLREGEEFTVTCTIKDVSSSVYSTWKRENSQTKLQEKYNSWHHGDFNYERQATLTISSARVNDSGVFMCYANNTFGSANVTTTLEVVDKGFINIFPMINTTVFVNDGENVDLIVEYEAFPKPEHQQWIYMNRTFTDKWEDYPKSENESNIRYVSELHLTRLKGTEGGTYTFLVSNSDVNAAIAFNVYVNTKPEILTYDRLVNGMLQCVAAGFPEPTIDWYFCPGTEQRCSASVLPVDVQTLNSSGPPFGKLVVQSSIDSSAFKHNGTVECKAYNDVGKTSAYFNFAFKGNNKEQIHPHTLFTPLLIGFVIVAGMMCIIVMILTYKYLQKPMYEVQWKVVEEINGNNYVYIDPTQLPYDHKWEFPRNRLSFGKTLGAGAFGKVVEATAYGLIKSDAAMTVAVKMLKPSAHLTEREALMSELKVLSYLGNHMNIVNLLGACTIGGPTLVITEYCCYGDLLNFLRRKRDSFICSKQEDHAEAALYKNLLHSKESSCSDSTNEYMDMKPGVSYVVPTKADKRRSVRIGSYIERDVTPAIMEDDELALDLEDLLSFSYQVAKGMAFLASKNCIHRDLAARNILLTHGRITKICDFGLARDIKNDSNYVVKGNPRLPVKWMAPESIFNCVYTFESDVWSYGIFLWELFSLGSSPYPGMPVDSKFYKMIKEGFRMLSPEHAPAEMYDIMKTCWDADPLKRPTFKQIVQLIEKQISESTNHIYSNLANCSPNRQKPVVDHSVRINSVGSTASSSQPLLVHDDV

[22] = system: Mast/stem cell growth factor receptor Kit (Homo sapiens), P10721 [D816H]; conditions: Compound concentration 1000.0 nM
[23] = biological target: Serine/threonine-protein kinase 10 (Homo sapiens) (UniProt O94804); conditions: Compound concentration 1000.0 nM
Sequence of Serine/threonine-protein kinase 10 (Homo sapiens) (O94804 whole entry, looked up): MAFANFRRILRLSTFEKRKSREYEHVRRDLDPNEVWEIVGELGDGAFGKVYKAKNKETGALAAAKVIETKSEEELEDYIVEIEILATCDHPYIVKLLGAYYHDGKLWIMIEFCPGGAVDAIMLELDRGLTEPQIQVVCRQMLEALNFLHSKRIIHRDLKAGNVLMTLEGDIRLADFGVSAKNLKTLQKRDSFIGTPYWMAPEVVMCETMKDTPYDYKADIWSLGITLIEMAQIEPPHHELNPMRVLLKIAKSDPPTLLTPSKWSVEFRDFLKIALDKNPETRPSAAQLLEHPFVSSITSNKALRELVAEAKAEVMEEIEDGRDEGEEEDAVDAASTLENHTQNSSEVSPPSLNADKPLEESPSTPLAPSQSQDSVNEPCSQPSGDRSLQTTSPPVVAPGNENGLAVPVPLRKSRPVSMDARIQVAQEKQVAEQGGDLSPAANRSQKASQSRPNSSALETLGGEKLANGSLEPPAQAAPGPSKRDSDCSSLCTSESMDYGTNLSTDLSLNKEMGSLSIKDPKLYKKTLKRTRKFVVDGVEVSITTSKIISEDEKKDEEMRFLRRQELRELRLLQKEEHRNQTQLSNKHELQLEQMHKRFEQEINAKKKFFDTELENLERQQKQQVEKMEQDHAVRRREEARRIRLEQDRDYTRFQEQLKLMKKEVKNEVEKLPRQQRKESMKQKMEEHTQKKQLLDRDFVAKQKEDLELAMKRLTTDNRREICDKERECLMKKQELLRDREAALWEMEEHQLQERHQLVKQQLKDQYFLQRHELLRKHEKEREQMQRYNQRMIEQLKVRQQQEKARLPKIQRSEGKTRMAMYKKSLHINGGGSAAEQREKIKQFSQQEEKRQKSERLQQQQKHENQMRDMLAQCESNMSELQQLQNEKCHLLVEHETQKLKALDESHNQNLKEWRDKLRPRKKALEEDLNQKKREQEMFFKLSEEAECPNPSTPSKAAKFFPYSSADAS

[24] = biological target: Tyrosine-protein kinase Lyn (Homo sapiens) (UniProt P07948); conditions: Compound concentration 1000.0 nM
[25] = biological target: MAP kinase-activated protein kinase 2 (Homo sapiens) (UniProt P49137); conditions: Compound concentration 1000.0 nM
[26] = biological target: Microtubule-associated serine/threonine-protein kinase 1 (Homo sapiens) (UniProt Q9Y2H9); conditions: Compound concentration 1000.0 nM
[27] = biological target: Dual specificity mitogen-activated protein kinase kinase 2 (Homo sapiens) (UniProt P36507); conditions: Compound concentration 1000.0 nM
[28] = biological target: Maternal embryonic leucine zipper kinase (Homo sapiens) (UniProt Q14680); conditions: Compound concentration 1000.0 nM
[29] = biological target: MAP kinase-interacting serine/threonine-protein kinase 2 (Homo sapiens) (UniProt Q9HBH9); conditions: Compound concentration 1000.0 nM
[30] = biological target: Myosin light chain kinase 2, skeletal/cardiac muscle (Homo sapiens) (UniProt Q9H1R3); conditions: Compound concentration 1000.0 nM
[31] = biological target: Serine/threonine-protein kinase OSR1 (Homo sapiens) (UniProt O95747); conditions: Compound concentration 1000.0 nM
[32] = biological target: Serine/threonine-protein kinase PAK 5 (Homo sapiens) (UniProt Q9P286); conditions: Compound concentration 1000.0 nM
[33] = biological target: Platelet-derived growth factor receptor beta (Homo sapiens) (UniProt P09619); conditions: Compound concentration 1000.0 nM
[34] = system: Phosphatidylinositol 4,5-bisphosphate 3-kinase catalytic subunit alpha isoform (Homo sapiens), P42336 [E545K]; conditions: Compound concentration 1000.0 nM
[35] = system: Phosphatidylinositol 4,5-bisphosphate 3-kinase catalytic subunit alpha isoform (Homo sapiens), P42336 [M1043I]; conditions: Compound concentration 1000.0 nM
Sequence of Phosphatidylinositol 4,5-bisphosphate 3-kinase catalytic subunit alpha isoform (Homo sapiens), P42336 [M1043I] (P42336 whole entry M1043I, canonical isoform): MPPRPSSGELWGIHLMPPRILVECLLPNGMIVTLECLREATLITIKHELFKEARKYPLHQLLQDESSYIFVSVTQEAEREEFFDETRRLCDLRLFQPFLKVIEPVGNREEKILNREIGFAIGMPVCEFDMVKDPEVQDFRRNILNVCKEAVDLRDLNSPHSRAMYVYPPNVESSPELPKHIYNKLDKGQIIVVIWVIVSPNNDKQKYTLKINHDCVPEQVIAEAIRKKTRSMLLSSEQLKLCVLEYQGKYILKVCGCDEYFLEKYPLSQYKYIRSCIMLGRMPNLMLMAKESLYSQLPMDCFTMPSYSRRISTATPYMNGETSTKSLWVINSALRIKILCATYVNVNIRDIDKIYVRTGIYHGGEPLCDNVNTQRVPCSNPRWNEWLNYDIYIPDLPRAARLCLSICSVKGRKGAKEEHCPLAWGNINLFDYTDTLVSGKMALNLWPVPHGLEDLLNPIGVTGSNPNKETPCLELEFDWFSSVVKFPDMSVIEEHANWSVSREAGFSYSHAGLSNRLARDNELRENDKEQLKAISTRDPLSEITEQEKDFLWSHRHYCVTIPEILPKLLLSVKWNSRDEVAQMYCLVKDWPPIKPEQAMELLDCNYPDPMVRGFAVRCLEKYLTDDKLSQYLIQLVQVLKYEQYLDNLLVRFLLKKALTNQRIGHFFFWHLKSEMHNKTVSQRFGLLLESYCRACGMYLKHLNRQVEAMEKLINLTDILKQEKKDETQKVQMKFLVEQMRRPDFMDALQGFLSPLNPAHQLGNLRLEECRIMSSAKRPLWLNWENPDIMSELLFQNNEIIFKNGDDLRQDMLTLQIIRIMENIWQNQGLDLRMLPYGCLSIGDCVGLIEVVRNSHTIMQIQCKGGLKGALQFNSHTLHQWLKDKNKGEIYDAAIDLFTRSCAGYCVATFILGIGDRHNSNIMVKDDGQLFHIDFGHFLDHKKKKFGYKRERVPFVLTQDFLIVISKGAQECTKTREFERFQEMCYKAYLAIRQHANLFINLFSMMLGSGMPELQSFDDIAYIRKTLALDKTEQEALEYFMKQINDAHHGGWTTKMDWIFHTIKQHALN

[36] = biological target: Serine/threonine-protein kinase pim-3 (Homo sapiens) (UniProt Q86V86); conditions: Compound concentration 1000.0 nM
[37] = biological target: Serine/threonine-protein kinase SIK3 (Homo sapiens) (UniProt Q9Y2K2); conditions: Compound concentration 1000.0 nM
[38] = biological target: Serine/threonine-protein kinase SIK1 (Homo sapiens) (UniProt P57059); conditions: Compound concentration 1000.0 nM
[39] = biological target: Non-receptor tyrosine-protein kinase TNK1 (Homo sapiens) (UniProt Q13470); conditions: Compound concentration 1000.0 nM
[40] = biological target: Vascular endothelial growth factor receptor 2 (Homo sapiens) (UniProt P35968); conditions: Compound concentration 1000.0 nM
[41] = biological target: Mitogen-activated protein kinase kinase kinase 20 (Homo sapiens) (UniProt Q9NYL2); conditions: Compound concentration 1000.0 nM
Sequence of Mitogen-activated protein kinase kinase kinase 20 (Homo sapiens) (Q9NYL2 2-800 limits assumed): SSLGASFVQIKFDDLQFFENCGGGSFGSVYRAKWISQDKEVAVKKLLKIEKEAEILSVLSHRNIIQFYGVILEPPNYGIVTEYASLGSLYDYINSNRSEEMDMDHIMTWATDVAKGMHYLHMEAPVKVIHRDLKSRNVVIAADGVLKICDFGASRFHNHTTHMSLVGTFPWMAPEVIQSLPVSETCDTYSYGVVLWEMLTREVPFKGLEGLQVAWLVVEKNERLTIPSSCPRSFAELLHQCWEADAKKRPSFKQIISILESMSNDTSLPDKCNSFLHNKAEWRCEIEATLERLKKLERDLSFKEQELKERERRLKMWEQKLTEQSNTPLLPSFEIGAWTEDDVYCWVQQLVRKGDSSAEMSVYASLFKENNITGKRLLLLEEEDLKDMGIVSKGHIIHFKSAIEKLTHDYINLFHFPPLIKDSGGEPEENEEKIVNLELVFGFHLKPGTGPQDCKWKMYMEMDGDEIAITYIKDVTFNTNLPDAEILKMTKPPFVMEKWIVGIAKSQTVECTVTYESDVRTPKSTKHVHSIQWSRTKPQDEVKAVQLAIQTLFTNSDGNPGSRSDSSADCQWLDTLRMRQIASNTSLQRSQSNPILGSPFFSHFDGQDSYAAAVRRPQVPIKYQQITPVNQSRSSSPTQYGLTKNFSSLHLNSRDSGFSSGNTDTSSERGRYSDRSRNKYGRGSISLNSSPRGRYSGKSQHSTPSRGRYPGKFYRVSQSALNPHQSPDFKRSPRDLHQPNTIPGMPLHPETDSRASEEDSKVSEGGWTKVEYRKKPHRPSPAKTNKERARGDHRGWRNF

[42] = biological target: 5-hydroxytryptamine receptor 1E (Homo sapiens) (UniProt P28566); conditions: Compound concentration 10.0 uM
[43] = biological target: 5-hydroxytryptamine receptor 2A (Homo sapiens) (UniProt P28223); conditions: Compound concentration 10.0 uM
[44] = biological target: Muscarinic acetylcholine receptor M2 (Homo sapiens) (UniProt P08172); conditions: Compound concentration 10.0 uM
[45] = organism: Rattus norvegicus; conditions: Compound concentration 10.0 uM

Sequence of Aurora kinase C (Homo sapiens) (Q9UQB9 whole entry): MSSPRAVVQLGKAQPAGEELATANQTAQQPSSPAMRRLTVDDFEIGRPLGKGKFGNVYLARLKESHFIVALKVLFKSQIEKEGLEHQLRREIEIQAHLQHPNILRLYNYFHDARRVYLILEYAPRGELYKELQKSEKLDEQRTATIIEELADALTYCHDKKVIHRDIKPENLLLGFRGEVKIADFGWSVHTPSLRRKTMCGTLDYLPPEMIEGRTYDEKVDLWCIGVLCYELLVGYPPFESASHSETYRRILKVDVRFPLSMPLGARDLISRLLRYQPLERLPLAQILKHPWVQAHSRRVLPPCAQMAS

C[C@H](c1cccc(C#N)c1)n1cc(Cl)cc(C(N)=O)c1=N [(R)-9s]
inactive: residual activity [1] 79% | residual activity [2] 91% | residual activity [3] 100% | residual activity [4] 97% | residual activity [5] 100% | residual activity [6] 100% | residual activity [7] 89% | residual activity [8] 98% | residual activity [9] 100% | residual activity [10] 98% | residual activity [11] 100% | residual activity [12] 96% | residual activity [13] 98% | residual activity [14] 78% | residual activity [15] 97% | residual activity [16] 81% | residual activity [17] 82% | residual activity [18] 90% | residual activity [19] 72% | residual activity [20] 100% | residual activity [21] 95% | residual activity [22] 79% | residual activity [23] 100% | residual activity [24] 81% | residual activity [25] 100% | residual activity [26] 96% | residual activity [27] 80% | residual activity [28] 74% | residual activity [29] 100% | residual activity [30] 100% | residual activity [31] 81% | residual activity [32] 100% | residual activity [33] 83% | residual activity [34] 82% | residual activity [35] 100% | residual activity [36] 100% | residual activity [37] 100% | residual activity [38] 100% | residual activity [39] 77% | residual activity [40] 88% | residual activity [41] 86% | inhibition [42] -3.17% | inhibition [43] 12.3% | inhibition [44] -3.2% | inhibition [45] 10.7%

C[C@@H](c1cccc(C#N)c1)n1cc(Cl)cc(C(N)=O)c1=N [(S)-9s]
inactive: residual activity [1] 76% | residual activity [2] 96% | residual activity [3] 100% | residual activity [4] 98% | residual activity [5] 100% | residual activity [6] 100% | residual activity [7] 100% | residual activity [8] 100% | residual activity [9] 100% | residual activity [10] 88% | residual activity [11] 100% | residual activity [12] 96% | residual activity [13] 100% | residual activity [14] 85% | residual activity [15] 100% | residual activity [16] 70% | residual activity [17] 87% | residual activity [18] 82% | residual activity [19] 75% | residual activity [20] 100% | residual activity [21] 100% | residual activity [22] 100% | residual activity [23] 86% | residual activity [24] 80% | residual activity [25] 97% | residual activity [26] 100% | residual activity [27] 76% | residual activity [28] 78% | residual activity [29] 100% | residual activity [30] 100% | residual activity [31] 93% | residual activity [32] 97% | residual activity [33] 84% | residual activity [34] 88% | residual activity [35] 100% | residual activity [36] 100% | residual activity [37] 94% | residual activity [38] 96% | residual activity [39] 94% | residual activity [40] 73% | residual activity [41] 71% | inhibition [42] -1.72% | inhibition [43] 5.24% | inhibition [44] 0.11% | inhibition [45] 1.07%
